From patent US8293716B2, “Method of treating cancer by modulation of mortalin” (Ramot At Tel Aviv University Ltd., priority 2005, dated 2012)
Where a SMILES comes first, the peptide text is derived from it. The star is where a group is joined. Cbz = O=C(OCc1ccccc1)*; CH2F = FC*

Tests used:
[1] = system: mortalin; assay: Mortalin release into supernatants of K562 cells, SDS-PAGE and Western blotting; assay type: cell-based, human; conditions: for mortalin release in response to sublytic dose of pore-former: mellitin 70 micromolar, SLO 900 units per milliliter, 10 minutes 37 degrees, no complement, FIGS. 4c-d; for release of mortalin from complement-treated cells: 30 minutes pretreatment (PMB 100 micrograms per milliliter, PD98059 10 micromolar), then sublytic anti-K562 antibody and NHS, FIGS. 6a-d
Procedure: (§1) Collection of extracellular protein: Cells were treated with antibodies for 30 minutes at 4 degrees centigrade and then with NHS or HI-NHS (50 percent) for 10 minutes at 37 degrees centigrade. Then, the cells were extensively washed into HBSS and incubated at 37 degrees centigrade. At different times, cells were removed by centrifugation at 250×g and supernatants were collected and kept frozen until analyzed. In some experiments, cells were first metabolically labeled for 2 hours at 37 degrees centigrade with an L-[^35S]methionine, L-[^35S]cysteine mix (Amersham Pharmacia, Uppsala, Sweden) at 200 microcuries per milliliter in RPMI (lacking methionine and cysteine) and 20 millimolar HEPES-pH 7.0. Cytotoxicity assays and collection of extracellular proteins were performed as described above. Radioactivity in the supernatants was quantified in a beta-Scintillation Counter (Tri-Carb, Packard).
Protein analyses: Protein concentration was analyzed with the BCA Protein Assay Kit (Pierce, Rockford, Ill., USA). Samples of 20 micrograms of protein was subjected to SDS-PAGE under reducing conditions (50 millimolar DTT), in a 10 percent acrylamide gel, and stained with Coomassie Blue or silver. Selected protein species were excised from Coomassie Blue-stained gels and analyzed by mass spectrometry (MALDI-MS) at the Maiman Institute for Proteome Research (Tel-Aviv University). Alternatively, the electrophoretically separated proteins were transferred onto a nitrocellulose membrane (Schleicher & Schuell, Dassel, Germany). The membrane was blocked with 5 percent skim milk (Tnuva, Rehovot, Israel) in Tris-buffered saline containing 0.05 percent Tween-20 (Sigma; TBST) for 1 hour at room temperature. The membrane was treated with rabbit anti-mortalin antibodies and then with peroxidase-conjugated goat anti-rabbit IgG. The labeled membrane was developed with an enhanced chemiluminescence reagent (Pierce, Rockford, Ill., USA) and exposed to a SuperRX film (Fuji, Tokyo, Japan).

[2] = system: solid tumors; conditions: cited from earlier work
[3] = system: K562 cells; assay: Complement-mediated cell lysis (cytotoxicity) assay, Trypan blue staining; assay type: cell-based, human; conditions: 10 micromolar cathepsin L inhibitor 30 minutes, anti-K562 1:40 or 1:50, NHS 60 minutes; versus DMSO; FIG. 8b
Procedure: (§2) Cells and cell lysates: The human erythroleukemic cell line K562 was cultured in RPMI-1640 medium supplemented with 10 percent (v/v) heat-inactivated fetal bovine serum (Gibco laboratories, Grand Island, NY, USA), 1 percent glutamine, 2 percent pyruvate and antibiotics mixture (Bio-Lab, Jerusalem, Israel), at 37 degrees centigrade in a 5 percent carbon dioxide atmosphere. To prepare cell lysates, 20 million cells were mixed with 1 milliliter lysis buffer composed of 100 millimolar Tris-pH 7.5, 10 millimolar EDTA, protease inhibitor cocktail (Sigma) and 0.7 percent Triton X-100. After 3 cycles of freezing and thawing, the cell lysate was subjected to centrifugation for 15 minutes at 14,000×g, and the supernatant was collected and diluted with 1 milliliter HBSS (Sigma, Rehovot, Israel).
Cell lysis and induced protection assays: Cytotoxicity assays were performed as previously described (Reiter, Y. and Fishelson, Z. 1992. Mol Immunol 29:771). Briefly, cells were incubated with diluted anti-K562 antiserum for 30 minutes at 4 degrees centigrade and then with complement (NHS, C7- or C8-deficient serum or HI-NHS, 50 percent) for 60 minutes at 37 degrees centigrade. Cell lysis was determined via Trypan blue staining. […] Statistical significance was analyzed by using the two-sided unpaired student's t-test.

[4] = system: mortalin; assay: Mortalin expression level in K562 cells, Western blotting of cell lysates; assay type: cell-based, human; conditions: cathepsin L inhibitor 5, 10, 20 or 40 micromolar, 30 minutes 37 degrees; FIG. 8a
Procedure: as §2
Protein analyses: Protein concentration was analyzed with the BCA Protein Assay Kit (Pierce, Rockford, Ill., USA). Samples of 20 micrograms of protein was subjected to SDS-PAGE under reducing conditions (50 millimolar DTT), in a 10 percent acrylamide gel, and stained with Coomassie Blue or silver. Selected protein species were excised from Coomassie Blue-stained gels and analyzed by mass spectrometry (MALDI-MS) at the Maiman Institute for Proteome Research (Tel-Aviv University). […]

[5] = system: K562 cells; assay: Complement-induced protection assay; assay type: cell-based, human; conditions: cells pre-treated with inhibitor and sublytic complement, then lytic dose of antibody and complement; FIGS. 6f-g
Procedure: Cell lysis and induced protection assays: Cytotoxicity assays were performed as previously described (Reiter, Y. and Fishelson, Z. 1992. Mol Immunol 29:771). Briefly, cells were incubated with diluted anti-K562 antiserum for 30 minutes at 4 degrees centigrade and then with complement (NHS, C7- or C8-deficient serum or HI-NHS, 50 percent) for 60 minutes at 37 degrees centigrade. Cell lysis was determined via Trypan blue staining. For the complement-induced protection assays, the cells were first treated with sublytic doses of antibody and NHS, washed and then incubated with lytic doses of antibody and NHS (Reiter, Y. et al., 1992. Eur J Immunol 22:1207). Statistical significance was analyzed by using the two-sided unpaired student's t-test.

[6] = system: K562 cells; assay: Release of metabolically-labeled proteins from complement-treated K562 cells; assay type: cell-based, human; conditions: pretreatment 30 minutes with 100 micrograms per milliliter PMB or 10 micromolar PD; radioactivity in supernatants; FIG. 6e
Procedure: as §1

For mellitin, the “mortalin release in response to sublytic dose of pore-former” value [1] was “not released”.

For CCn1c(=O)/c(=C2\Sc3ccccc3N2C)s/c1=C\c1cccc[n+]1CC.[Cl-] [MKT-077], the “kidney toxicity in human patients” value ([2]; Propper et al. 1999) is listed as “irreversible kidney damage” and the “effectiveness when used to treat cancer patients” value ([2]; cancer patients) is listed as “ineffective or suboptimally effective”.

With O=C(N[C@@H](Cc1ccccc1)C(=O)N[C@@H](Cc1ccccc1)C(=O)CF)OCc1ccccc1 [cathepsin L inhibitor, Z-Phe-Phe-CH2F] (Cbz-Phe-Phe-CH2F) the “resistance of treated cells to lysis by antibody and complement” value [3] was “enhanced resistance” and the “mortalin expression in K562 cells” value [4] was “elevation of mortalin expression”.

For polymyxin B [PMB], the “release of mortalin from complement-treated cells” value [1] was “significantly reduced”, the “acquired resistance to lytic complement after sublytic complement” value [5] was “did not acquire the resistance to lytic complement” and the “complement-induced release of metabolically-labeled proteins” value [6] was “blocked”.

For COc1cccc(-c2cc(=O)c3ccccc3o2)c1N [PD98059], the “release of mortalin from complement-treated cells” value [1] was “significantly reduced”, the “acquired resistance to lytic complement after sublytic complement” value [5] was “did not acquire the resistance to lytic complement” and the “complement-induced release of metabolically-labeled proteins” value [6] was “blocked”.

With Streptolysin O [SLO] the “mortalin release in response to sublytic dose of pore-former” value [1] was “not released”.
